Test results: patent US4812482A, “Application of α-[[(2-hydroxy-1, 1-dimethyl-ethyl) amine] methyl] benzene methanol hydrochloride (EL-508) as a drug with antiinflammatory action” (Especialidades Latinas Medicamentos Universales, S.A. …, priority 1987, dated 1989)
Structures can show the parent of a compound that is named as a salt. Where two headings read alike, the source gives them in different places.

Columns and labels:
carrageenin peritonitis = assay: carrageenin-induced peritonitis, oral; assay type: in vivo; conditions: 100 mg/Kg
formalin peritonitis = assay: formalin-induced peritonitis, oral; assay type: in vivo; conditions: 100 mg/Kg
carrageenin oedema [1] = assay: carrageenin oedema, topical application; assay type: in vivo; conditions: 6% aqueous or alcoholic solutions
Text: (§1) Further, it is to be noted that the antiinflammatory activity of EL-508, after its topical application, in 6% aqueous or alcoholic solutions in acute experimental processes, is summarized in the following table in comparison to 6% benzidamine HC1 as a reference drug: […]

ovoalbumin oedema [2] = assay: ovoalbumin oedema, topical application; assay type: in vivo; conditions: 6% aqueous or alcoholic solutions
Text: as §1

kaolin oedema [3] = assay: kaolin oedema, topical application; assay type: in vivo; conditions: 6% aqueous or alcoholic solutions
Text: as §1

croton oil oedema = assay: croton oil oedema, topical application; assay type: in vivo; conditions: 6% aqueous or alcoholic solutions
Text: as §1

[4] = system: vascular permeability (xylol); assay: vascular/capillary permeability, xylol-induced extravasation; assay type: in vivo; conditions: for reduction of extravasation induced by xylol: solution for topical application
Text: (§2) In these tests Benzidamine HC1 lacked action.

[5] = system: vascular permeability (chloroform); assay: vascular/capillary permeability, chloroform-induced extravasation; assay type: in vivo; conditions: for reduction of extravasation induced by chloroform: solution for topical application
Text: as §2

carrageenin oedema [6] = assay: carrageenin-induced acute oedema, oral route; assay type: in vivo; conditions: rat, dose which produces 50% of oedema inhibition
Text: (§3) ED50 are indicated, these corresponding to the dose which produces 50% of oedema inhibition.

kaolin oedema [7] = assay: kaolin-induced acute oedema, oral route; assay type: in vivo; conditions: rat, dose which produces 50% of oedema inhibition
Text: as §3

ovoalbumin oedema [8] = assay: ovoalbumin-induced acute oedema, oral route; assay type: in vivo; conditions: rat, dose which produces 50% of oedema inhibition
Text: as §3

formol oedema = assay: formol-induced acute oedema, oral route; assay type: in vivo; conditions: rat, dose which produces 50% of oedema inhibition
Text: as §3

carrageenin abscess = assay: carrageenin abscess, oral route; assay type: in vivo; conditions: rat, dose which produces 50% of oedema inhibition
Text: as §3

[9] = acute toxicity LD50, mouse; conditions: in vivo
acute toxicity LD50, rat = conditions: in vivo
rats = assay: chronic toxicity over six months, rats; assay type: in vivo; conditions: p.o., up to 100 mg/kg/day
dogs = assay: chronic toxicity over six months, dogs; assay type: in vivo; conditions: p.o., up to 100 mg/kg/day
[10] = system: skin, genital and conjunctival mucous membranes; parameters: species or system animals; conditions: in vivo
[11] = system: skin, genital and conjunctival mucous membranes; assay: topical tolerance in human volunteers; assay type: in vivo; conditions: solution
[12] = system: skin, conjunctive and vaginal mucous membranes; assay: topical tolerance of the aqueous solution after repeated applications; assay type: in vivo
[13] = system: muscular-ligamentous pathological processes: luxations, sprains, contusions; assay: clinical trial in muscular-ligamentous pathological processes, 6% aerosol; assay type: in vivo, human
Text: Several clinical trials have been carried out with different pharmaceutical compositions with α-[[(2-hydroxy-1, 1-dimethyl-ethyl) amine]methyl]benzene methanol hydrocholride (EL-508) as active principle. In the 6% aerosol pharmaceutical composition the therapeutic action was studied in muscular-ligamentous pathological processes: luxations, sprains, contusions and the like.

[14] = system: vaginitis of unknown ethiology or atrophic vaginitis and specific infectious vaginitis; assay: clinical trials in vaginitis, vaginal solutions; assay type: in vivo, human; conditions: vaginal solutions at 5% and 0,2%
Experimental: Further, as to the pharmaceutical forms of solutions for vaginal applications at 5% and 0,2% various clinical trials were performed in patients with vaginitis of unknown ethiology or atrophic vaginitis and specific infectious vaginitis.

adrenalectomized rats = assay: antiinflammatory effect in adrenalectomized rats; assay type: in vivo
[15] = system: chronic inflammatory processes; assay: experimental chronic inflammatory processes; assay type: in vivo
peripheral blood flow = assay: peripheral blood flow; conditions: in vivo
ulcerogenic action = conditions: in vivo
[16] = acute and chronic toxicity and tolerance, summary; conditions: in vivo
acute inflammation = assay: experiments of acute inflammation, oral and topical, summary; assay type: in vivo
Text: In looking for a drug with intense topical antiinflammatory activity and good tolerance, the compound α-[[(2-hydroxy-1, 1-dimethyl-ethyl) amine]methyl]benzene methanol hydrochloride was syntheiszed and developed, and its chemical structure is completely different from that of conventional non-steroid anti-inflammatory drugs.

inflammatory processes = assay: therapeutic index in the different experimental models; assay type: in vivo; conditions: vs reference compounds

CN(C)CCCOc1nn(Cc2ccccc2)c2ccccc12 [Benzidamine HCl, reference compound]
percentage of inhibition, Carrageenin perit. (carrageenin peritonitis): 31,3%
percentage of inhibition, Formalin perit. (formalin peritonitis): 15,6%
Inhibition % of oedemas, carrageenin (carrageenin oedema [1]): 7%
Inhibition % of oedemas, ovoalbumin (ovoalbumin oedema [2]): 42,0%
Inhibition % of oedemas, Kaolin (kaolin oedema [3]): 0%
Inhibition % of oedemas, Croton oil (croton oil oedema): 44%
reduction of extravasation induced by xylol [4]: lacked action
reduction of extravasation induced by chloroform [5]: lacked action

CC(C)(CO)NCC(O)c1ccccc1 (stereo not drawn) [EL-508, α-[[(2-hydroxy-1,1-dimethyl-ethyl)amine]methyl]benzene methanol hydrochloride]
ED50 (carrageenin oedema [6]): 29.8 mg/kg
ED50 (kaolin oedema [7]): 44.9 mg/kg
ED50 (ovoalbumin oedema [8]): 16.7 mg/kg
ED50 (formol oedema): 21.7 mg/kg
ED50 (carrageenin abscess): 9.4 mg/kg
percentage of inhibition, Carrageenin perit. (carrageenin peritonitis): 70,8%
activity on carrageenin peritonitis compared with reference drugs (carrageenin peritonitis; equal doses): more active than the reference drugs
percentage of inhibition, Formalin perit. (formalin peritonitis): 28,1%
activity on formalin-induced peritonitis compared with reference drugs (formalin peritonitis; equal doses): more active than the reference drugs
Inhibition % of oedemas, carrageenin (carrageenin oedema [1]): 48%
Inhibition % of oedemas, ovoalbumin (ovoalbumin oedema [2]): 40,6%
Inhibition % of oedemas, Kaolin (kaolin oedema [3]): 47,5%
Inhibition % of oedemas, Croton oil (croton oil oedema): 30%
activity against capillary permeability increases induced by xylol ([4]; all the administration routes): highly active
reduction of extravasation induced by xylol [4]: 50%
activity against capillary permeability increases induced by chloroform ([5]; all the administration routes): highly active
reduction of extravasation induced by chloroform [5]: 50%
LD50 ([9]; ip): 295 mg/kg
LD50 ([9]; iv): 79 mg/kg
LD50 ([9]; po): 1020 mg/kg
LD50 (acute toxicity LD50, rat; ip): 350 mg/kg
LD50 (acute toxicity LD50, rat; iv): 80 mg/kg
LD50 (acute toxicity LD50, rat; po): 2080 mg/kg
undesirable effects in chronic toxicity study (rats): no undesirable effects attributable to the product
undesirable effects in chronic toxicity study (dogs): no undesirable effects attributable to the product
topical tolerance [10]: perfectly tolerated
topical tolerance [11]: perfectly tolerated
topical tolerance [12]: well tolerated
therapeutic action [13]: therapeutic action higher than pyiridil-3-methyl amine salicylate and placebo
efficacy in vaginitis [14]: more efficent in these indications than iodic povidone and placebo
antiinflammatory effect (adrenalectomized rats): antiinflammatory effect is direct, without central or hormaonal stimulus
activity on primary inflammatory phenomena [15]: demonstrated its activity on primary inflammatory phenomena
effect on peripheral blood flow (peripheral blood flow): did not modify at all peripheral blood flow
ulcerogenic action (ulcerogenic action): slight ulcerogenic action
acute and chronic toxicity [16]: acute and chronic toxicity was very low
systematic and topical tolerance [16]: systematic and topical tolerance has been demonstrated
undesirable side effects [16]: no undesirable side effects
antiinflammatory activity (acute inflammation; oral and topical route, acute inflammation): great antiinflammatory activity
antiinflammatory effect compared with reference products (acute inflammation; vs fenylbutazone, pyridil-3-methylamine salicilate, benzidamine salicilate, etc.): higher than the referenced products used
therapeutic indices (inflammatory processes): considerably higher than for the reference compounds

CCCCC1C(=O)N(c2ccccc2)N(c2ccccc2)C1=O [Fenilbutazone, reference compound]
ED50 (carrageenin oedema [6]): 200 mg/kg
ED50 Ovoalbumin (ovoalbumin oedema [8]): Inactive
ED50 (carrageenin abscess): 80 mg/kg

CCCCC1C(=O)N(c2ccccc2)N(c2ccc(O)cc2)C1=O (centres unmarked) [Oxyphenylbutazone, reference compound]
percentage of inhibition, Carrageenin perit. (carrageenin peritonitis): 58,8%
percentage of inhibition, Formalin perit. (formalin peritonitis): 7,5%
